Experimental data: patent US20100331183A1, “AGENT FOR IMPROVING GOOD RICE SEEDLING GROWTH” (COSMO OIL CO., LTD, priority 2008, published 2010)

How the values were obtained:
rice seedlings [1] = experiment: Effect of improving the growth of rice seedlings - 1 (soil irrigation in seedling box, harvest 33 days from sowing); assay type: in vivo, rice (koshihikari variety)
Procedure: 450 g/pot of soil was placed in a seedling box (the area was 1/120,000×10 a). The soil used was a purchased volcanic ash soil (andosol). […] Fertilizer application was carried out using a liquid fertilizer, Hyponica, at a rate of 3 kg-N/10 a. […] After 29 days from sowing, additional fertilizer application was carried out using a liquid fertilizer, Hyponica, at a rate of 3 kg-N/10 a. After 33 days from sowing, the plant bodies were harvested, and the fresh weight (roots) and the tillering number were measured.

rice seedlings [2] = experiment: Effect of improving rice seedling growth - 2 (soil irrigation in seedling box, harvest 22 days from sowing); assay type: in vivo; conditions: for SPAD value (chlorophyll content) / Stem thickness: 5-aminolevulinic acid hydrochloride 600 mg/10 a and/or inabenfide 300 g/10 a, n = 15 to 17
Procedure: 450 g/pot of soil was placed in a seedling box (the area was 1/120,000×10 a). The soil used was a purchased volcanic ash soil (andosol). […] Fertilizer application was carried out using a liquid fertilizer, Hyponica, at a rate of 5 kg-N/10 a. […] The results for the fresh weight of roots and the tillering number under various conditions are presented in Table 6, and the results for the stem thickness and the chlorophyll content (SPAD value) under various conditions are presented in Table 7.

rice seedlings [3] = experiment: Verification of effect: treated seedlings transplanted into paddy field pot, harvest after three weeks; assay type: in vivo; conditions: 3 weeks after transplantation into paddy field pot; treated upon raising seedlings: 5-aminolevulinic acid hydrochloride 120 mg/10a and/or inabenfide 1200 g/10a; n = 3
Procedure: 450 g/pot of soil was placed in a seedling box (the area was 1/120,000×10 a). The soil used was a purchased volcanic ash soil (andosol). Rice seeds which had been subjected to brine grading using a brine having a specific gravity of 1.13, and had been germinated, were sowed at a rate of 15 seeds/pot, and the seeds were covered with soil at a depth of 1 to 2 cm (50 g/pot). Fertilizer application was carried out using a liquid fertilizer, Hyponica, at a rate of 5 kg-N/10 a. For each of the test zones (n=4), the soil was irrigated with combinations of inabenfide in an amount of treatment of 1,200 or 300 g/10 a, and 5-aminolevulinic acid hydrochloride in an amount of treatment of 600, 200 or 120 mg/10 a. After 22 days from sowing, the plant bodies were harvested, and the fresh weight (roots), the tillering number, the stem thickness and the chlorophyll content (SPAD value) were measured. The results for the fresh weight of roots and the tillering number under various conditions are presented in Table 6, and the results for the stem thickness and the chlorophyll content (SPAD value) under various conditions are presented in Table 7.
Seedlings were raised in the same manner as in Example 2. In regard to the treatment concentration upon raising seedlings, the treatment was carried out using 5-aminolevulinic acid hydrochloride at a concentration of 120 (mg/10 a) and inabenfide at a concentration of 1,200 (g/10 a). After the seedlings were raised, the roots of four seedlings were evenly cut to 2 cm, and the seedlings were transplanted into a pot simulating the state of paddy field. After three weeks from the transplantation into the pot simulating the state of paddy field, the plant bodies were harvested, and the dry weights of the aerial part and the root part, and the tillering number were measured. The various treatment conditions employed upon raising the seedlings, and the measurement values obtained after 3 weeks from the transplantation into paddy field pot are presented in Table 8.

[4] = 5-aminolevulinic acid hydrochloride 200 mg/10 a and/or paclobutrazole 90 g/10 a
[5] = 5-aminolevulinic acid hydrochloride 120 mg/10 a, inabenfide 0
[6] = 5-aminolevulinic acid hydrochloride 200 mg/10 a, inabenfide 0
[7] = 5-aminolevulinic acid hydrochloride 600 mg/10 a, inabenfide 0
[8] = 5-aminolevulinic acid hydrochloride 200 mg/10 a and/or inabenfide 1200 g/10 a
[9] = 5-aminolevulinic acid hydrochloride 200 mg/10 a and/or prohexadione calcium salt 15 g/10 a
[10] = 5-aminolevulinic acid hydrochloride 200 mg/10 a and/or trinexapac-ethyl 1.25 g/10 a
[11] = 5-aminolevulinic acid hydrochloride 200 mg/10 a and/or uniconazole P 30 g/10 a
[12] = 5-aminolevulinic acid hydrochloride 200 mg/10 a and/or uniconazole P 30 g/10 a, n=4 zones
[13] = inabenfide 300 g/10 a, 5-aminolevulinic acid hydrochloride 0
[14] = inabenfide 1200 g/10 a, 5-aminolevulinic acid hydrochloride 0

Row | SMILES | Average tillering number per plant body (rice seedlings [1]; [4]) | Fresh weight of roots (rice seedlings [1]; [4]) | SPAD value (chlorophyll content) (rice seedlings [2]) | Stem thickness (rice seedlings [2]) | Average tillering number per plant body (rice seedlings [1]; [8]) | Fresh weight of roots (rice seedlings [1]; [8]) | Fresh weight of roots (rice seedlings [1]; [9]) | Average tillering number per plant body (rice seedlings [1]; [10]) | Fresh weight of roots (rice seedlings [1]; [10]) | Average tillering number per plant body (rice seedlings [1]; [11]) | Fresh weight of roots (rice seedlings [1]; [12]) | Average tillering number per plant body (rice seedlings [3]) | Degree of sturdiness (dry weight/height for shoots) (rice seedlings [3]) | Dry weight of roots (rice seedlings [3]) | Dry weight of shoots (rice seedlings [3]) | Fresh weight of shoots (rice seedlings [3]) | further results
1 | CC(C)(C)[C@@H](O)[C@@H](Cc1ccc(Cl)cc1)n1cncn1 (racemic) [Paclobutrazole, (2RS,3RS)-1-(4-chlorophenyl)-4,4-dimethyl-2-(1H-1,2,4-triazol-1-yl)pentan-3-ol] | 0.80 | 0.29 g |  |  |  |  |  |  |  |  |  |  |  |  |  |  | 
2 | Cl.NCC(=O)CCC(=O)O [5-aminolevulinic acid hydrochloride] | 0.00 | 0.29 g | 28.70 | 0.429 cm | 0.00 | 0.29 g | 0.29 g | 0.00 | 0.29 g | 0.00 | 0.29 g | 6.7 | 0.052 g/cm | 1.0 g | 3.2 g | 14.1 g | Average tillering number per plant body (rice seedlings [2]; [5]): 0.03; Fresh weight of roots (rice seedlings [2]; [5]): 0.35 g; Average tillering number per plant body (rice seedlings [2]; [6]): 0.01; Fresh weight of roots (rice seedlings [2]; [6]): 0.36 g; Average tillering number per plant body (rice seedlings [2]; [7]): 0.00; Fresh weight of roots (rice seedlings [2]; [7]): 0.35 g
3 | O=C(Nc1ccc(Cl)cc1C(O)c1ccccc1)c1ccncc1 (stereo not drawn) [Inabenfide] |  |  | 29.23 | 0.415 cm | 0.19 | 0.34 g |  |  |  |  |  | 8.0 | 0.060 g/cm | 1.1 g | 3.6 g | 15.8 g | Average tillering number per plant body (rice seedlings [2]; [13]): 0.11; Fresh weight of roots (rice seedlings [2]; [13]): 0.35 g; Average tillering number per plant body (rice seedlings [2]; [14]): 0.41; Fresh weight of roots (rice seedlings [2]; [14]): 0.35 g
4 | CCC(=O)C1=C([O-])CC(C(=O)[O-])CC1=O.[Ca+2] (stereo not drawn) [Prohexadione calcium salt, calcium 3-oxido-5-oxo-4-propionyl-3-cyclohexene carboxylate] |  |  |  |  |  |  | 0.32 g |  |  |  |  |  |  |  |  |  | 
5 | CCOC(=O)C1CC(=O)C(=C(O)C2CC2)C(=O)C1 (stereo not drawn) [Trinexapac-ethyl, ethyl=4-cyclopropyl-α-hydroxymethylene)-3,5-dioxocyclohexane carboxylate] |  |  |  |  |  |  |  | 0.00 | 0.23 g |  |  |  |  |  |  |  | 
6 | CC(C)(C)[C@H](O)/C(=C\c1ccc(Cl)cc1)n1cncn1 [Uniconazole P, (E)-(S)-1-(4-chlorophenyl)-4,4-dimethyl-2-(1H-1,2,4-triazol-1-yl)pent-1-en-3-ol] |  |  |  |  |  |  |  |  |  | 0.86 | 0.28 g |  |  |  |  |  | 
